Each structure is given as a SMILES string.

The values below come from patent US10005774B2, “Syk inhibitors” (Gilead Sciences, Inc., priority 2013, dated 2018).

The assay has as its target Syk (Homo sapiens, UniProt P43405). Description: High Throughput Syk Biochemical Assay (KinEASE TR-FRET). The following applies: table 'ALL NEW COMPOUNDS IN 2014', 20 μM ATP, 1 μM biotinylated peptide, 0.015 nM Syk, 30 min at room temperature, read-out: Syk IC50. In a few lines: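 Two-step endpoint TR-FRET (KinEASE) measured Syk phosphorylation of an XL665-labelled peptide, detected with europium anti-phosphotyrosine antibody. Compounds were serially diluted in DMSO.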
Background: In TR-FRET formats the signal depends on donor and acceptor labels being close together.
In the case of `C[C@@H](Oc1cc(-c2cnn(C(C)(C)CO)c2)cc2ncn(C3CC3)c12)[C@H]1CNC(=O)C1` [(R)-4-((R)-1-((1-cyclopropyl-5-(1-(1-hydroxy-2-methylpropan-2-yl)-1H-pyrazol-4-yl)-1H-benzo[d]imidazol-7-yl)oxy)ethyl)pyrrolidin-2-one], the IC50 (as a rule, the concentration needed to halve the response being measured) came out at 1.99 nM.

Regarding `C[C@@H](Oc1cc(-c2cnn(CC(C)(C)O)c2)cc2ncn(C3CC3)c12)[C@H]1CNC(=O)C1` [(R)-4-((R)-1-((1-cyclopropyl-5-(1-(2-hydroxy-2-methylpropyl)-1H-pyrazol-4-yl)-1H-benzo[d]imidazol-7-yl)oxy)ethyl)pyrrolidin-2-one], the half-inhibitory concentration (IC50) was 1.73 nM.

With `C[C@@H](Oc1cc(-c2cnn(C3COC3)c2)cc2ncn(C3CC3)c12)[C@H]1CNC(=O)C1` [(R)-4-((R)-1-((1-cyclopropyl-5-(1-(oxetan-3-yl)-1H-pyrazol-4-yl)-1H-benzo[d]imidazol-7-yl)oxy)ethyl)pyrrolidin-2-one], the IC50 was found to be 3.21 nM.

As for `C[C@@H](Oc1cc(-c2cnn(-c3ccncc3)c2)cc2ncn(C3CC3)c12)[C@H]1CNC(=O)C1` [(R)-4-((R)-1-((1-cyclopropyl-5-(1-(pyridin-4-yl)-1H-pyrazol-4-yl)-1H-benzo[d]imidazol-7-yl)oxy)ethyl)pyrrolidin-2-one], the IC50 is 7.58 nM.

For the molecule `C[C@@H](Oc1cc(-c2ccnn2C2CCOCC2)cc2ncn(C3CC3)c12)[C@H]1CNC(=O)C1` [(R)-4-((R)-1-((1-cyclopropyl-5-(1-(tetrahydro-2H-pyran-4-yl)-1Hpyrazol-5-yl)-1H-benzo[d]imidazol-7-yl)oxy)ethyl)pyrrolidin-2-one], the IC50 turned out to be 411 nM.

On to `C[C@@H](Oc1cc(-c2ccc3c(c2)NCCN3C)cc2ncn(C3CC3)c12)[C@H]1CNC(=O)C1` [(R)-4-((R)-1-((1-cyclopropyl-5-(1-methyl-1,2,3,4-tetrahydroquinoxalin-6-yl)-1H-benzo[d]imidazol-7-yl)oxy)ethyl)pyrrolidin-2-one], for which the IC50 stood at 3.83 nM.

Turning to `C[C@@H](Oc1cc(-c2ccc3c(cnn3C)c2)cc2ncn(C3CC3)c12)[C@H]1CNC(=O)C1` [(R)-4-((R)-1-((1-cyclopropyl-5-(1-methyl-1H-indazol-5-yl)-1H-benzo[d]imidazol-7-yl)oxy)ethyl)pyrrolidin-2-one], the IC50 worked out at 5.02 nM.

As to `C[C@@H](Oc1cc(-c2ccn(C)n2)cc2ncn(C3CC3)c12)[C@H]1CNC(=O)C1` [(R)-4-((R)-1-((1-cyclopropyl-5-(1-methyl-1H-pyrazol-3-yl)-1H-benzo[d]imidazol-7-yl)oxy)ethyl)pyrrolidin-2-one], the IC50 turned out to be 10.6 nM.

For the molecule `C[C@@H](Oc1cc(-c2cnn(C)c2)cc2ncn(C3CC3)c12)[C@H]1CNC(=O)C1` [(R)-4-((R)-1-((1-cyclopropyl-5-(1-methyl-1H-pyrazol-4-yl)-1H-benzo[d]imidazol-7-yl)oxy)ethyl)pyrrolidin-2-one], the IC50 was 4.44 nM.

For `C[C@@H](Oc1cc(-c2cnc(C(C)(C)O)s2)cc2ncn(C3CC3)c12)[C@H]1CNC(=O)C1` [(R)-4-((R)-1-((1-cyclopropyl-5-(2-(2-hydroxypropan-2-yl)thiazol-5-yl)-1H-benzo[d]imidazol-7-yl)oxy)ethyl)pyrrolidin-2-one], the IC50 turned out to be 1.41 nM.

For `C[C@@H](Oc1cc(-c2cnc(C3CCOCC3)s2)cc2ncn(C3CC3)c12)[C@H]1CNC(=O)C1` [(R)-4-((R)-1-((1-cyclopropyl-5-(2-(tetrahydro-2H-pyran-4-yl)thiazol-5-yl)-1H-benzo[d]imidazol-7-yl)oxy)ethyl)pyrrolidin-2-one], the IC50 stood at 0.54 nM.

Consider `C[C@@H](Oc1cc(-c2ccc(N3CCN(C4COC4)CC3)cc2F)cc2ncn(C3CC3)c12)[C@H]1CNC(=O)C1` [(R)-4-((R)-1-((1-cyclopropyl-5-(2-fluoro-4-(4-(oxetan-3-yl)piperazin-1-yl)phenyl)-1H-benzo[d]imidazol-7-yl)oxy)ethyl)pyrrolidin-2-one], for which the IC50 amounted to 2.76 nM.

Take `C[C@@H](Oc1cc(-c2cnn(C)n2)cc2ncn(C3CC3)c12)[C@H]1CNC(=O)C1` [(R)-4-((R)-1-((1-cyclopropyl-5-(2-methyl-2H-1,2,3-triazol-4-yl)-1H-benzo[d]imidazol-7-yl)oxy)ethyl)pyrrolidin-2-one]: the IC50 was determined as 22.4 nM.

Regarding `Cc1nc(-c2cc(O[C@H](C)[C@H]3CNC(=O)C3)c3c(c2)ncn3C2CC2)cs1` [(R)-4-((R)-1-((1-cyclopropyl-5-(2-methylthiazol-4-yl)-1H-benzo[d]imidazol-7-yl)oxy)ethyl)pyrrolidin-2-one], the IC50 worked out at 16.7 nM.

As for `C[C@@H](Oc1cc(-c2ccc3c(c2)NCC3(C)C)cc2ncn(C3CC3)c12)[C@H]1CNC(=O)C1` [(R)-4-((R)-1-((1-cyclopropyl-5-(3,3-dimethylindolin-6-yl)-1H-benzo[d]imidazol-7-yl)oxy)ethyl)pyrrolidin-2-one], the IC50 was determined as 9.11 nM.

`C[C@@H](Oc1cc(-c2ccc3c(c2)NCCO3)cc2ncn(C3CC3)c12)[C@H]1CNC(=O)C1` [(R)-4-((R)-1-((1-cyclopropyl-5-(3,4-dihydro-2H-benzo[b][1,4]oxazin-6-yl)-1H-benzo[d]imidazol-7-yl)oxy)ethyl)pyrrolidin-2-one]: the IC50 was determined as 2.56 nM.

For the molecule `C[C@@H](Oc1cc(-c2ccc3c(n2)NCCO3)cc2ncn(C3CC3)c12)[C@H]1CNC(=O)C1` [(R)-4-((R)-1-((1-cyclopropyl-5-(3,4-dihydro-2H-pyrido[3,2-b][1,4]oxazin-6-yl)-1H-benzo[d]imidazol-7-yl)oxy)ethyl)pyrrolidin-2-one], the half-inhibitory concentration (IC50) came out at 4.76 nM.

`CCOc1cc(-c2cc(O[C@H](C)[C@H]3CNC(=O)C3)c3c(c2)ncn3C2CC2)ccc1OC` [(R)-4-((R)-1-((1-cyclopropyl-5-(3-ethoxy-4-methoxyphenyl)-1H-benzo[d]imidazol-7-yl)oxy)ethyl)pyrrolidin-2-one]: the IC50 came to 12.9 nM.

Regarding `C[C@@H](Oc1cc(-c2ccc(N3CCN(C4COC4)CC3)c(F)c2)cc2ncn(C3CC3)c12)[C@H]1CNC(=O)C1` [(R)-4-((R)-1-((1-cyclopropyl-5-(3-fluoro-4-(4-(oxetan-3-yl)piperazin-1-yl)phenyl)-1H-benzo[d]imidazol-7-yl)oxy)ethyl)pyrrolidin-2-one], the IC50 was 3.08 nM.

For `Cc1cc(-c2cc(O[C@H](C)[C@H]3CNC(=O)C3)c3c(c2)ncn3C2CC2)ccc1N1CCN(C2COC2)CC1` [(R)-4-((R)-1-((1-cyclopropyl-5-(3-methyl-4-(4-(oxetan-3-yl)piperazin-1-yl)phenyl)-1H-benzo[d]imidazol-7-yl)oxy)ethyl)pyrrolidin-2-one], the half-maximal inhibitory concentration (IC50) turned out to be 2.15 nM.

Regarding `Cc1nc(-c2cc(O[C@H](C)[C@H]3CNC(=O)C3)c3c(c2)ncn3C2CC2)sc1C` [(R)-4-((R)-1-((1-cyclopropyl-5-(4,5-dimethylthiazol-2-yl)-1H-benzo[d]imidazol-7-yl)oxy)ethyl)pyrrolidin-2-one], the IC50 is 1.41 nM.

As for `COc1cc(-c2cc(O[C@H](C)[C@H]3CNC(=O)C3)c3c(c2)ncn3C2CC2)ccc1OC(F)F` [(R)-4-((R)-1-((1-cyclopropyl-5-(4-(difluoromethoxy)-3-methoxyphenyl)-1H-benzo[d]imidazol-7-yl)oxy)ethyl)pyrrolidin-2-one], the IC50 stood at 23.1 nM.

For the molecule `C[C@@H](Oc1cc(-c2ccc(N3CCN(C4COC4)CC3)cn2)cc2ncn(C3CC3)c12)[C@H]1CNC(=O)C1` [(R)-4-((R)-1-((1-cyclopropyl-5-(5-(4-(oxetan-3-yl)piperazin-1-yl)pyridin-2-yl)-1H-benzo[d]imidazol-7-yl)oxy)ethyl)pyrrolidin-2-one], the IC50 turned out to be 4.72 nM.

With `C[C@@H](Oc1cc(-c2ccc(N3CCC(C4COC4)CC3)cn2)cc2ncn(C3CC3)c12)[C@H]1CNC(=O)C1` [(R)-4-((R)-1-((1-cyclopropyl-5-(5-(4-(oxetan-3-yl)piperidin-1-yl)pyridin-2-yl)-1H-benzo[d]imidazol-7-yl)oxy)ethyl)pyrrolidin-2-one], the IC50 was 4.65 nM.

On to `C[C@@H](Oc1cc(-c2ccc(N3CCC(N4CCOCC4)CC3)cn2)cc2ncn(C3CC3)c12)[C@H]1CNC(=O)C1` [(R)-4-((R)-1-((1-cyclopropyl-5-(5-(4-morpholinopiperidin-1-yl)pyridin-2-yl)-1H-benzo[d]imidazol-7-yl)oxy)ethyl)pyrrolidin-2-one], for which the IC50 was 6.85 nM.

Take `Cc1nnc(-c2cc(O[C@H](C)[C@H]3CNC(=O)C3)c3c(c2)ncn3C2CC2)s1` [(R)-4-((R)-1-((1-cyclopropyl-5-(5-methyl-1,3,4-thiadiazol-2-yl)-1H-benzo[d]imidazol-7-yl)oxy)ethyl)pyrrolidin-2-one]: the IC50 stood at 5.45 nM.

In the case of `Cc1cnc(-c2cc(O[C@H](C)[C@H]3CNC(=O)C3)c3c(c2)ncn3C2CC2)s1` [(R)-4-((R)-1-((1-cyclopropyl-5-(5-methylthiazol-2-yl)-1H-benzo[d]imidazol-7-yl)oxy)ethyl)pyrrolidin-2-one], the IC50 came to 1.73 nM.

As to `C[C@@H](Oc1cc(-c2ccc(N3CCN(C4COC4)CC3)nn2)cc2ncn(C3CC3)c12)[C@H]1CNC(=O)C1` [(R)-4-((R)-1-((1-cyclopropyl-5-(6-(4-(oxetan-3-yl)piperazin-1-yl)pyridazin-3-yl)-1H-benzo[d]imidazol-7-yl)oxy)ethyl)pyrrolidin-2-one], the IC50 was determined as 11.6 nM.

As for `C[C@@H](Oc1cc(-c2ccc(N3CCN(C4COC4)CC3)nc2)cc2ncn(C3CC3)c12)[C@H]1CNC(=O)C1` [(R)-4-((R)-1-((1-cyclopropyl-5-(6-(4-(oxetan-3-yl)piperazin-1-yl)pyridin-3-yl)-1H-benzo[d]imidazol-7-yl)oxy)ethyl)pyrrolidin-2-one], the IC50 came to 7.38 nM.

For `C[C@@H](Oc1cc(-c2cnccn2)cc2ncn(C3CC3)c12)[C@H]1CNC(=O)C1` [(R)-4-((R)-1-((1-cyclopropyl-5-(pyrazin-2-yl)-1H-benzo[d]imidazol-7-yl)oxy)ethyl)pyrrolidin-2-one], the IC50 amounted to 66.7 nM.

Turning to `C[C@@H](Oc1cc(-c2ccccn2)cc2ncn(C3CC3)c12)[C@H]1CNC(=O)C1` [(R)-4-((R)-1-((1-cyclopropyl-5-(pyridin-2-yl)-1H-benzo[d]imidazol-7-yl)oxy)ethyl)pyrrolidin-2-one], the IC50 came to 10.6 nM.
